Experimental data reported in patent US20090082266A1, “CONJUGATE OF WATER-SOLUBLE HYALURONIC ACID MODIFICATION PRODUCT WITH GLP-A ANALOGUE” (priority 2005, published 2009).

Experiments:
[1] = test system: BKS. Cg −+Lepr^db/+Lepr^db/Jcl mice; assay: Oral glucose tolerance test, subcutaneous administration (Example 6-5); format: in vivo; settings: 3000 μg/kg sc, AUC up to 2 hours, mean
Experimental: After 8 weeks old male BKS. Cg −+Lepr^db/+Lepr^db/Jcl mice (Japan CLEA Co. Ltd.) were fasted overnight to 24 hours, the HA-GLP-1 analogue 2 conjugate solution, which was obtained in Example 6-2 and diluted with solvent Z (at a dose as peptide, 300 μg/kg), or solvent Z was subcutaneously administered to the mice. After 6, 24 or 48 hours of the subcutaneous administration, 50% glucose solution (Otsuka Pharamaceutical Co. Ltd.) was orally administered at a dose of 3 g glucose/kg. […] After 2 minutes or 4 hours and 2 minutes of the subcutaneous administration (in the case of solvent Z, after 1 or 5 hours) 50% glucose solution was orally administered at a dose of 3 g glucose/kg. Tests were carried out on groups consisting of 6 mice per group.
(§1) Before the glucose administration (0 hour), 0.5, 1 and 2 hours after the administration, blood was collected from the tail, and the blood glucose level was measured by an enzymatic assay (hexokinase method; Reagent, Autosera S GLU (Daiichi Pure Chemicals Co. Ltd.); Instrument, BioMajesty JCA-BM1250 (JEOL Co. Ltd.)).
The blood glucose lowering rate was calculated according to the formula described in Example 5-4.

[2] = in vivo, iv; cited from earlier work
[3] = test system: BKS. Cg −+Lepr^db/+Lepr^db/Jcl mice; assay: Oral glucose tolerance test, intravenous administration (Example 5-4); format: in vivo; settings: glucose 3 g/kg orally 1 minute later, AUC up to 4 hours, mean
Experimental: After 8 weeks old male BKS. Cg −+Lepr^db/+Lepr^db/Jcl mice (Japan CLEA Co. Ltd.) were fasted overnight, the HA-GLP-1 analogue 1 conjugate solution, which was obtained in Example 5-2 and diluted with solvent Z (at doses as peptide, 1.5 μg/kg, 15 μg/kg or 150 μg/kg), or solvent Z was intravenously administered to the mice. After 1 minute of the intravenous administration, 50% glucose solution (Otsuka Pharamaceutical Co. Ltd.) was orally administered at a dose of 3 g glucose/kg. […] After 1 minute of the intravenous administration, 50% glucose solution was orally administered at a dose of 3 g glucose/kg. Tests were carried out on groups consisting of 6 mice per group.
as §1, with “0.5, 1, 2” for “0.5, 1”, “and 4” for “and 2”
The blood glucose lowering rate was calculated according to the following formula.

Substance | Blood glucose lowering rate (%) ([1]; glucose 3 g/kg orally 2 Minutes after administration) | Blood glucose lowering rate (%) ([1]; glucose 3 g/kg orally 4 Hour 2 Minutes after administration) | half life [2] [min] | Blood glucose lowering rate (%) ([3]; 150 μg/kg iv (conjugate: as peptide)) | Blood glucose lowering rate (%) ([3]; 1500 μg/kg iv)
GLP-1 analogue 0: variant of native GLP-1 (human, 7-37) in which the second (position 8) alanine was converted to glycine (HGEGTFTSDVSSYLEGQAAKEFIAWLVKGRG; Glucagon-like peptide 1(7-37); UniProt P01275 98-128, looked up, variant A8G) | 102 | 18 | 1 to 5 |  | 
GLP-1: native GLP-1 (Human, 7-37; Peptide Institute, Inc.) |  |  |  | 15 | 60
